Key:
[1] = Thermal stability at melt-extrusion temperatures; type: physicochemical; details: temperatures up to 300° C.
Method: One of the most important parameters of melt extrusion is the temperature at which the melt-extruder is operating. […] At temperatures lower than 120° C., itraconazole will not dissolve completely in most water-soluble polymers and the extrudate will not have the required bioavailability. In addition, the process is difficult because of the high viscosity of the mixture. At temperatures of more than 300° C. the water-soluble polymer may decompose to an unacceptable level.

[2] = Solubility in aqueous media (USP definition); type: physicochemical; details: water; USP definition: more than 10,000 parts of solvent for 1 part of solute
Source text: The solvent referred to herein is water.

- thermal stability (decomposition) [1]: thermally very stable
- solubility in aqueous media [2]: practically insoluble
Compound: CCC(C)n1ncn(-c2ccc(N3CCN(c4ccc(OCC5COC(Cn6cncn6)(c6ccc(Cl)cc6Cl)O5)cc4)CC3)cc2)c1=O (racemic) [itraconazole, (±)-cis-4-[4-[4-[4-[[2-(2,4-dichlorophenyl)-2-(1H-1,2,4-triazol-1-yl-methyl)-1,3-dioxolan-4-yl]methoxy]phenyl]-1-piperazinyl]phenyl]-2,4-dihydro-2-(1-methylpropyl)-3H-1,2,4-triazol-3-one]
